“Also recorded” adds a separate entry of the source.
Assays:
[1] = Second order rate of pyrrole formation with the model γ-ketoaldehyde 4-oxopentanal; assay type: biochemical
Experimental: The present inventors determined the approximate second order rate constants of different amines for pyrrole formation with […], a γ-ketoaldehyde.
These compounds are tested for the rate of pyrrole formation when incubated with the γ-ketoaldehyde, 4-oxopentanal. […] Ehrlich reagent may be used to detect levels of pyrroles.
All rates are shown relative to N-α-acetyl-lysine.

HepG2 cell = experiment: Cellular viability of HepG2 cells exposed to hydrogen peroxide; assay type: cell-based
[2] = Lipophilicity / penetration into nonpolar environments; assay type: physicochemical
[3] = system: patients convalescing from myocardial infarction; details: in vivo; cited from earlier work
[4] = biological target: human cardiac Na channel (hH1, or SCN5A) (Homo sapiens, UniProt Q14524); experiment: Whole-cell Na current recording, wild-type hH1 expressed in HEK-293 cells; details: HEK-293; t-BHP 1 mM, Iso-K 10 μM, flecainide 1 μM
human cardiac Na channel (hH1, or SCN5A), sequence (Q14524 whole entry): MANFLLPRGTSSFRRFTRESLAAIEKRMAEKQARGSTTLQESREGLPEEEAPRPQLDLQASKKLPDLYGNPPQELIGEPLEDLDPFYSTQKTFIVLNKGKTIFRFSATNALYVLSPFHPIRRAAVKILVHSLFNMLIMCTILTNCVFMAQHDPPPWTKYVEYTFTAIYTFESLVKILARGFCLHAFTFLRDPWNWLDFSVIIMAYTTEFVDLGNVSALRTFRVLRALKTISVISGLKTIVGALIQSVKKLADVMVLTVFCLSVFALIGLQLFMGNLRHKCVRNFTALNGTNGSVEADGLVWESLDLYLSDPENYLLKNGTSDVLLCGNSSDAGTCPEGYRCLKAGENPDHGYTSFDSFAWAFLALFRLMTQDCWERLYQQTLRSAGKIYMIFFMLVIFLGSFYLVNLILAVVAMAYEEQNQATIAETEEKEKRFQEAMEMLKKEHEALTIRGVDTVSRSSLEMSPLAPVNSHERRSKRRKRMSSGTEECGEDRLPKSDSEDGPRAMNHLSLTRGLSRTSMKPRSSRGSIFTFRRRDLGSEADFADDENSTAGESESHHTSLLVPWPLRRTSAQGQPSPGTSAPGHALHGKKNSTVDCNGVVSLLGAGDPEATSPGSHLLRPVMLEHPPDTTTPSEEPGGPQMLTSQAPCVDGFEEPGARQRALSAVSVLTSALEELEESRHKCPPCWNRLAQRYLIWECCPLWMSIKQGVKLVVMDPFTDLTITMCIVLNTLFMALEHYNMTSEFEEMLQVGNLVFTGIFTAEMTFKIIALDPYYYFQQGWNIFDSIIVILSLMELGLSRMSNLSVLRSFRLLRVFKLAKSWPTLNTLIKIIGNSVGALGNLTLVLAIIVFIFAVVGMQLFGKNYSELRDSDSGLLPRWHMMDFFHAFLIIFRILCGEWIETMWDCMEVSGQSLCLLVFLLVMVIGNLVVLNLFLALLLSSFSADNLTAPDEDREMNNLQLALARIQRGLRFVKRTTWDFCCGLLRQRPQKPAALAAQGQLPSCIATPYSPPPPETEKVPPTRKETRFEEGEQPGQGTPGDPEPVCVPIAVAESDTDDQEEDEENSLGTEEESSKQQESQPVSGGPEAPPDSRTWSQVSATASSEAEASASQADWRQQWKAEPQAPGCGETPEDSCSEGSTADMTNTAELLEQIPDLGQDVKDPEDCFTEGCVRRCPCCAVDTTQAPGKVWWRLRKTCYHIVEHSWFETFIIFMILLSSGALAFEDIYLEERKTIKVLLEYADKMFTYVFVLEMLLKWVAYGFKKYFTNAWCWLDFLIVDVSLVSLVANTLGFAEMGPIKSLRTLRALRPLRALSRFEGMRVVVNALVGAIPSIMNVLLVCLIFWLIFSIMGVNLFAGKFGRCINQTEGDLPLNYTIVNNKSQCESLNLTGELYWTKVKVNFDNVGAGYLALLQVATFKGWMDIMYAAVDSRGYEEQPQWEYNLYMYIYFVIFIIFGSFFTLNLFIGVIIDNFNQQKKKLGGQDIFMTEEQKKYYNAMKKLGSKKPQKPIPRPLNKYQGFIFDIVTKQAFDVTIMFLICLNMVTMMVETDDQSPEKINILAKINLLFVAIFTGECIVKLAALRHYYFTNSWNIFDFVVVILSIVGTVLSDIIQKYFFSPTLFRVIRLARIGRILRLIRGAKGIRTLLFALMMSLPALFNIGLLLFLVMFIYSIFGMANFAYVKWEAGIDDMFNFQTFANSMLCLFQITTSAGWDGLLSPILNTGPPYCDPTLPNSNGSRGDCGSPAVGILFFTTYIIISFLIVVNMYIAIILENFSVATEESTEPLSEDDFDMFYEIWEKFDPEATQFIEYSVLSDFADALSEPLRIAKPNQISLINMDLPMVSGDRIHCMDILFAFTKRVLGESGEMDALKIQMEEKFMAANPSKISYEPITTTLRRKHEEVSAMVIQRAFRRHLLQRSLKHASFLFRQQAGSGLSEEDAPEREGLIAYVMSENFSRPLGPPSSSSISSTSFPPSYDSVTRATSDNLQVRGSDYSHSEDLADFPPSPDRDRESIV

20S proteasome = experiment: Degradation of adducted ovalbumin by purified 20S proteasome; assay type: biochemical
[5] = Oxidation of arachidonic acid in the presence of scavenger and 10 molar excess of lysine; assay type: biochemical
Text: The amounts of each of these adducts to the amount of γ KA adduct formed were normalized. […] Because cardiac ion channels are embedded in cellular membranes, the ability to penetrate into membranes is critical.

Compound: NCCO [2-aminoethanol]
- approximate second order rate constants for pyrrole formation [1]: 3.1e+08 M⁻¹ s⁻¹

Compound: NCc1ccc(O)cc1 [4-SA, 4-salicylamine]
- scavenging γ KAs [1]: inactive

Compound: NCc1ccncc1 [4-picolinylamine]
- approximate second order rate constants for pyrrole formation [1]: 0.0011 M⁻¹ s⁻¹

Compound: CC(=O)N[C@@H](CCCCN)C(=O)O [N^αacetyllysine]
- approximate second order rate constants for pyrrole formation [1]: 7e+07 M⁻¹ s⁻¹

Compound: Cc1ncc(CO)c(CN)c1O [PM, pyridoxamine]
- protection of cellular viability (HepG2 cell): no significant protection
- lipophilicity / penetration into nonpolar environments [2]: quite hydrophilic; also recorded: poorly penetrates into nonpolar environments

Compound: COc1ccc(C(=O)Nc2ccccc2CCC2CCCCN2C)cc1 (stereo not drawn) [encainide]
- mortality increase [3]: three-fold

Compound: F2-isoprostane
- V1/2 voltage-dependence of inactivation (availability) [4]: −91.4±1.8 mV

Compound: IsoK(1)-OVA: ovalbumin adducted with equimolar E2-IsoK
- degradation by purified 20S proteasome (20S proteasome): nearly in half

Compound: IsoK(10)-OVA: ovalbumin adducted with ten molar equivalents of E2-IsoK
- degradation by purified 20S proteasome (20S proteasome): completely blocked its degradation

Compound: pentylpyridoxamine [PPM]
- protection of cellular viability (HepG2 cell): slightly less protection
- scavenging γ KAs [1]: very good at scavenging
- levels of F2-IsoP formed [5]: None of the three scavengers reduced
- selectivity for γ KA products over other lipid peroxidation products [5]: relatively selectively; also recorded: most selective
- levels of Lys-lactam adduct formed ([5]; compared to vehicle): markedly reduced
